Data as given in patent US20240217966A1, “PHARMACEUTICAL COMPOSITION CONTAINING GLP-1 RECEPTOR AGONIST HAVING FUSED RING” (Shionogi & Co., Ltd., priority 2021, published 2024).

Target: T1, Human GLP-1 receptor (Homo sapiens, UniProt P43220)
T1 construct: expressed in transfected cells
Assay: Measurement of GLP-1 receptor agonist activity (cAMP assay)
Assay type: cell-based
Conditions: cAMP increase in GLP-1 R/CHO-K1 cells, 2 nM human GLP-1 (7-36) = 100%, DMSO only = 0%; for Emax: CHO-K1, maximum effect, read-out: Emax
Outline: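 Agonism measured as cAMP accumulation by time-resolved FRET immunoassay in CHO-K1 cells stably expressing human GLP-1 receptor. Cells treated for 1 h at 37 °C with compound and forskolin (400 μM stock), in buffer containing the PDE inhibitors IBMX (0.1 mM) and RO20-1724 (0.2 mM).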

T1 sequence (P43220 24-463): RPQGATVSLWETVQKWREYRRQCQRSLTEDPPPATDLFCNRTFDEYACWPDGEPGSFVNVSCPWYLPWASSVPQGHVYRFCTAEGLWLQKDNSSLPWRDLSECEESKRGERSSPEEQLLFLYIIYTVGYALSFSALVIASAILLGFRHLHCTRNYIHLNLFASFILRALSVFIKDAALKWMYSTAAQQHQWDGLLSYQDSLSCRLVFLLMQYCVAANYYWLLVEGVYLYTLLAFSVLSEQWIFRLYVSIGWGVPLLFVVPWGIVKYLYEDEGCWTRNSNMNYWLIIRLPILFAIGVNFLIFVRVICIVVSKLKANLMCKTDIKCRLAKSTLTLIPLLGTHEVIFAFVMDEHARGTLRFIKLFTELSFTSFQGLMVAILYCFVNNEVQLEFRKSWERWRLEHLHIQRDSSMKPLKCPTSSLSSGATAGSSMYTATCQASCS

| Structure (SMILES) | Emax | EC50 |
| --- | --- | --- |
| C[C@H]1c2nc(OCc3ccc(OC(F)F)cc3F)c(C(F)(F)F)cc2CCN1Cc1nc2ccc(C(=O)O)cc2n1C[C@@H]1CCO1 [Compound I-256] | 119% | 0.389 nM |
| C[C@H]1c2nc(OCc3c(F)cc(Cl)cc3F)c(C(F)(F)F)cc2CCN1Cc1nc2ccc(C(=O)O)cc2n1C[C@@H]1CCO1 [Compound I-259] | 134% | 0.104 nM |
| COc1ccc(COc2nc3c(cc2C(F)(F)F)CCN(Cc2nc4ccc(C(=O)O)cc4n2C[C@@H]2CCO2)C3)cc1 [Compound I-262] | 109% | 4.47 nM |
| O=C(O)c1ccc2nc(CN3CCc4cc(C(F)(F)F)c(OCc5ccc(Cl)cn5)nc4C3)n(C[C@@H]3CCO3)c2c1 [Compound I-263] | 105% | 8.8 nM |
| O=C(O)c1ccc2nc(CN3CCc4cc(C(F)(F)F)c(OCc5ccc(Cl)cc5)nc4C3)n(C[C@@H]3CCO3)c2c1 [Compound I-264] | 121% | 2.36 nM |
| Cc1ccc(COc2nc3c(cc2C(F)(F)F)CCN(Cc2nc4ccc(C(=O)O)cc4n2C[C@@H]2CCO2)C3)cc1 [Compound I-265] | 100% | 3.18 nM |
| O=C(O)c1ccc2nc(CN3CCc4cc(C(F)(F)F)c(OCc5ccc(C6CC6)cc5)nc4C3)n(C[C@@H]3CCO3)c2c1 [Compound I-266] | 111% | 4.04 nM |
| O=C(O)c1ccc2nc(CN3CCc4cc(C(F)(F)F)c(OCc5ccccc5Cl)nc4C3)n(C[C@@H]3CCO3)c2c1 [Compound I-277] | 96.3% | 3.2 nM |
| COc1cc(C(=O)O)cc2c1nc(CN1CCc3cc(C(F)(F)F)c(OCc4ccccc4Cl)nc3[C@@H]1C)n2C[C@@H]1CCO1 [Compound I-281] | 120% | 0.00739 nM |
| COc1cc(C(=O)O)cc2c1nc(CN1CCc3cc(C(F)(F)F)c(OCc4c(F)cc(F)cc4F)nc3[C@@H]1C)n2C[C@@H]1CCO1 [Compound I-285] | 130% | 0.00862 nM |
| C[C@H]1c2nc(OCc3ccc(F)cc3)c(C(F)(F)F)cc2CCN1Cc1nc2ccc(C(=O)O)nc2n1C[C@@H]1CCO1 [Compound I-290] | 118% | 0.266 nM |
| C[C@H]1c2nc(OCc3c(F)cc(Cl)cc3F)c(C(F)(F)F)cc2CCN1Cc1nc2ccc(C(=O)O)nc2n1C[C@@H]1CCO1 [Compound I-291] | 120% | 0.0864 nM |
| C[C@H]1c2nc(OCc3c(F)cc(F)cc3F)c(C(F)(F)F)cc2CCN1Cc1nc2ccc(C(=O)O)nc2n1C[C@@H]1CCO1 [Compound I-292] | 121% | 0.146 nM |
| O=C(O)c1ccc2nc(CN3CCc4cc(C(F)(F)F)c(OCc5ccc(Cl)cc5)nc4C3)n(C[C@@H]3CCO3)c2c1F [Compound I-294] | 97.7% | – |
| Cc1ccc(COc2nc3c(cc2C(F)(F)F)CCN(Cc2nc4ccc(C(=O)O)c(F)c4n2C[C@@H]2CCO2)C3)cc1 [Compound I-295] | 108% | 1.29 nM |
| O=C(O)c1ccc2nc(CN3CCc4cc(C(F)(F)F)c(OCc5ccc(F)cc5F)nc4C3)n(C[C@@H]3CCO3)c2c1F [Compound I-297] | 102% | 0.818 nM |
| O=C(O)c1ccc2nc(CN3CCc4cc(C(F)(F)F)c(OCc5ccc(Cl)cc5Cl)nc4C3)n(C[C@@H]3CCO3)c2c1F [Compound I-298] | 109% | 0.317 nM |
| O=C(O)c1ccc2nc(CN3CCc4cc(C(F)(F)F)c(OCc5cc(F)c(Cl)cc5F)nc4C3)n(C[C@@H]3CCO3)c2c1F [Compound I-299] | 115% | 0.42 nM |
| N#Cc1ccc(COc2nc3c(cc2C(F)(F)F)CCN(Cc2nc4ccc(C(=O)O)c(F)c4n2C[C@@H]2CCO2)C3)c(F)c1 [Compound I-300] | 112% | – |
| O=C(O)c1ccc2nc(CN3CCc4cc(C(F)(F)F)c(OCc5ccc(Cl)cc5)nc4C3)n(C[C@@H]3CCO3)c2n1 [Compound I-302] | 110% | 1.76 nM |
| COc1cc(Cl)ccc1COc1nc2c(cc1C(F)(F)F)CCN(Cc1nc3ccc(C(=O)O)nc3n1C[C@@H]1CCO1)C2 [Compound I-303] | 119% | 0.681 nM |
| O=C(O)c1ccc2nc(CN3CCc4cc(C(F)(F)F)c(OCc5ccc(Cl)cc5Cl)nc4C3)n(C[C@@H]3CCO3)c2n1 [Compound I-304] | 115% | 0.869 nM |
| O=C(O)c1ccc2nc(CN3CCc4cc(C(F)(F)F)c(OCc5cc(F)c(Cl)cc5F)nc4C3)n(C[C@@H]3CCO3)c2n1 [Compound I-305] | 107% | 0.949 nM |
| C[C@H]1c2nc(OCc3ccc(F)cc3)c(C(F)(F)F)cc2CCN1Cc1nc2c(F)cc(C(=O)O)cc2n1C[C@@H]1CCO1 [Compound I-307] | 115% | 0.0609 nM |

Next, values leading:

| Emax | EC50 | Structure (SMILES) |
| --- | --- | --- |
| 115% | 0.0747 nM | C[C@H]1c2nc(OCc3cc(F)c(Cl)cc3F)c(C(F)(F)F)cc2CCN1Cc1nc2ccc(C(=O)O)cc2n1C[C@@H]1CCO1 [Compound I-257] |
| 107% | 0.0911 nM | C[C@H]1c2nc(OCc3ccc(C#N)cc3F)c(C(F)(F)F)cc2CCN1Cc1nc2ccc(C(=O)O)cc2n1C[C@@H]1CCO1 [Compound I-258] |
| 115% | 0.128 nM | C[C@H]1c2nc(OCc3c(F)cc(F)cc3F)c(C(F)(F)F)cc2CCN1Cc1nc2ccc(C(=O)O)cc2n1C[C@@H]1CCO1 [Compound I-260] |
| 105% | 1.27 nM | C[C@H]1c2cc(OCc3ccc(Cl)cc3F)c(C(F)F)cc2CCN1Cc1nc2ccc(C(=O)O)cc2n1C[C@@H]1CCO1 [Compound I-261] |
| 112% | 0.861 nM | COc1cc(Cl)ccc1COc1nc2c(cc1C(F)(F)F)CCN(Cc1nc3ccc(C(=O)O)cc3n1C[C@@H]1CCO1)C2 [Compound I-267] |
| 108% | 1.97 nM | O=C(O)c1ccc2nc(CN3CCc4cc(C(F)(F)F)c(OCc5ccc(F)cc5F)nc4C3)n(C[C@@H]3CCO3)c2c1 [Compound I-268] |
| 109% | 1.16 nM | O=C(O)c1ccc2nc(CN3CCc4cc(C(F)(F)F)c(OCc5ccc(Cl)cc5Cl)nc4C3)n(C[C@@H]3CCO3)c2c1 [Compound I-269] |
| 116% | 0.69 nM | O=C(O)c1ccc2nc(CN3CCc4cc(C(F)(F)F)c(OCc5ccc(OC(F)F)cc5F)nc4C3)n(C[C@@H]3CCO3)c2c1 [Compound I-270] |
| 118% | 1.66 nM | N#Cc1ccc(COc2nc3c(cc2C(F)(F)F)CCN(Cc2nc4ccc(C(=O)O)cc4n2C[C@@H]2CCO2)C3)c(F)c1 [Compound I-271] |
| 107% | 3.94 nM | O=C(O)c1ccc2nc(CN3CCc4cc(C(F)(F)F)c(OCc5ccc(F)cc5)nc4C3)n(C[C@@H]3CCO3)c2c1 [Compound I-272] |
| 121% | 0.0301 nM | C[C@H]1c2nc(OCc3ccc(Cl)cc3F)c(C(F)(F)F)cc2CCN1Cc1nc2c(F)cc(C(=O)O)cc2n1C[C@@H]1CCO1 [Compound I-273] |
| 120% | 0.0134 nM | COc1cc(C(=O)O)cc2c1nc(CN1CCc3cc(C(F)(F)F)c(OCc4ccc(Cl)cc4F)nc3[C@@H]1C)n2C[C@@H]1CCO1 [Compound I-274] |
| 107% | 0.246 nM | C[C@H]1c2nc(OCc3ccc(Cl)cc3F)c(C(F)(F)F)cc2CCN1Cc1nc2ccc(C(=O)O)nc2n1C[C@@H]1CCO1 [Compound I-275] |
| 114% | 0.0521 nM | C[C@H]1c2nc(OCc3ccc(Cl)cc3F)c(Cl)cc2CCN1Cc1nc2ccc(C(=O)O)cc2n1C[C@@H]1CCO1 [Compound I-276] |
| 109% | 0.806 nM | O=C(O)c1ccc2nc(CN3CCc4cc(C(F)(F)F)c(OCc5cc(F)c(Cl)cc5F)nc4C3)n(C[C@@H]3CCO3)c2c1 [Compound I-278] |
| 110% | – | O=C(O)c1ccc2nc(CN3CCc4cc(C(F)(F)F)c(OCc5c(F)cc(Cl)cc5F)nc4C3)n(C[C@@H]3CCO3)c2c1 [Compound I-279] |
| 105% | 0.79 nM | O=C(O)c1ccc2nc(CN3CCc4cc(C(F)(F)F)c(OCc5c(F)cc(F)cc5F)nc4C3)n(C[C@@H]3CCO3)c2c1 [Compound I-280] |
| 114% | 0.00918 nM | COc1cc(C(=O)O)cc2c1nc(CN1CCc3cc(C(F)(F)F)c(OCc4ccc(F)cc4F)nc3[C@@H]1C)n2C[C@@H]1CCO1 [Compound I-282] |
| 118% | 0.0283 nM | COc1cc(C(=O)O)cc2c1nc(CN1CCc3cc(C(F)(F)F)c(OCc4ccc(OC(F)F)cc4F)nc3[C@@H]1C)n2C[C@@H]1CCO1 [Compound I-283] |
| 119% | 0.016 nM | COc1cc(C(=O)O)cc2c1nc(CN1CCc3cc(C(F)(F)F)c(OCc4ccc(F)cc4)nc3[C@@H]1C)n2C[C@@H]1CCO1 [Compound I-284] |
| 115% | 0.444 nM | COc1ccc(COc2nc3c(cc2C(F)(F)F)CCN(Cc2nc4ccc(C(=O)O)nc4n2C[C@@H]2CCO2)[C@H]3C)cc1 [Compound I-286] |
| 116% | 0.103 nM | C[C@H]1c2nc(OCc3ccccc3Cl)c(C(F)(F)F)cc2CCN1Cc1nc2ccc(C(=O)O)nc2n1C[C@@H]1CCO1 [Compound I-287] |
| 115% | 0.171 nM | C[C@H]1c2nc(OCc3ccc(F)cc3F)c(C(F)(F)F)cc2CCN1Cc1nc2ccc(C(=O)O)nc2n1C[C@@H]1CCO1 [Compound I-288] |
| 117% | 0.311 nM | C[C@H]1c2nc(OCc3ccc(OC(F)F)cc3F)c(C(F)(F)F)cc2CCN1Cc1nc2ccc(C(=O)O)nc2n1C[C@@H]1CCO1 [Compound I-289] |
| 117% | – | COc1cc(Cl)ccc1COc1nc2c(cc1C(F)(F)F)CCN(Cc1nc3ccc(C(=O)O)c(F)c3n1C[C@@H]1CCO1)C2 [Compound I-296] |
| 117% | – | O=C(O)c1ccc2nc(CN3CCc4cc(C(F)(F)F)c(OCc5c(F)cc(Cl)cc5F)nc4C3)n(C[C@@H]3CCO3)c2c1F [Compound I-301] |
| 98.7% | 0.876 nM | O=C(O)c1ccc2nc(CN3CCc4cc(C(F)(F)F)c(OCc5ccc(Cl)cc5F)nc4C3)n(C[C@@H]3CCO3)c2n1 [Compound I-306] |
